This note sets out measurements from patent US12685735B2 (Foghorn Therapeutics Inc., priority 2020, dated 2026).

One experiment addresses BRG-1 (Homo sapiens, UniProt P51532). The experiment is described as follows: ATPase catalytic activity assay of BRG-1 (ADP-Glo). In kind it is biochemical. To be noted: ATPase catalytic activity, ADP-Glo, 30 nM BRG-1, 400 μM ATP; for IC50: read-out: BRG1 IC50 (μM)*; for Emax: read-out: BRG1 Max % Inhibition. The procedure, abridged:
(§1)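 Once the enzyme reaction finished, residual ATP is removed with ADP-Glo Reagent over 40 minutes at room temperature. Kinase Detection Reagent then converts product ADP into ATP during a 60-minute room-temperature incubation, and the luciferase signal is read.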
Background: ADP-Glo turns the ADP formed in a reaction into a luminescent signal.

A further experiment deals with BRM (Homo sapiens, UniProt P51531). Nature of the experiment: ATPase catalytic activity assay of BRM (ADP-Glo). In kind it is biochemical. The note with it: 30 nM BRM, 400 μM ATP; for IC50: read-out: BRM IC50 (μM)*. In outline: as §1
The test system of experiment [1] is Uveal melanoma cell lines, 92-1 or MP41. Nature of the experiment: Comparison of BRG1/BRM inhibitor to clinical PKC and MEK inhibitors, cell growth (Cell-titer glo, 3 days). In kind it is cell-based. To be noted: 92-1 or MP41 cells, versus LXS196 and Selumetinib. On the procedure: Procedure: Uveal melanoma cell lines, 92-1 or MP41, were plated in 96 well plates in the presence of growth media (See Table 6). […] Cells were incubated at 37 degrees Celsius for 3 days. After three days of treatment, cell growth was measured with Cell-titer glow (Promega), and luminescence was read on an Envision plate reader (Perkin Elmer).

BRM, sequence (P51531 whole entry): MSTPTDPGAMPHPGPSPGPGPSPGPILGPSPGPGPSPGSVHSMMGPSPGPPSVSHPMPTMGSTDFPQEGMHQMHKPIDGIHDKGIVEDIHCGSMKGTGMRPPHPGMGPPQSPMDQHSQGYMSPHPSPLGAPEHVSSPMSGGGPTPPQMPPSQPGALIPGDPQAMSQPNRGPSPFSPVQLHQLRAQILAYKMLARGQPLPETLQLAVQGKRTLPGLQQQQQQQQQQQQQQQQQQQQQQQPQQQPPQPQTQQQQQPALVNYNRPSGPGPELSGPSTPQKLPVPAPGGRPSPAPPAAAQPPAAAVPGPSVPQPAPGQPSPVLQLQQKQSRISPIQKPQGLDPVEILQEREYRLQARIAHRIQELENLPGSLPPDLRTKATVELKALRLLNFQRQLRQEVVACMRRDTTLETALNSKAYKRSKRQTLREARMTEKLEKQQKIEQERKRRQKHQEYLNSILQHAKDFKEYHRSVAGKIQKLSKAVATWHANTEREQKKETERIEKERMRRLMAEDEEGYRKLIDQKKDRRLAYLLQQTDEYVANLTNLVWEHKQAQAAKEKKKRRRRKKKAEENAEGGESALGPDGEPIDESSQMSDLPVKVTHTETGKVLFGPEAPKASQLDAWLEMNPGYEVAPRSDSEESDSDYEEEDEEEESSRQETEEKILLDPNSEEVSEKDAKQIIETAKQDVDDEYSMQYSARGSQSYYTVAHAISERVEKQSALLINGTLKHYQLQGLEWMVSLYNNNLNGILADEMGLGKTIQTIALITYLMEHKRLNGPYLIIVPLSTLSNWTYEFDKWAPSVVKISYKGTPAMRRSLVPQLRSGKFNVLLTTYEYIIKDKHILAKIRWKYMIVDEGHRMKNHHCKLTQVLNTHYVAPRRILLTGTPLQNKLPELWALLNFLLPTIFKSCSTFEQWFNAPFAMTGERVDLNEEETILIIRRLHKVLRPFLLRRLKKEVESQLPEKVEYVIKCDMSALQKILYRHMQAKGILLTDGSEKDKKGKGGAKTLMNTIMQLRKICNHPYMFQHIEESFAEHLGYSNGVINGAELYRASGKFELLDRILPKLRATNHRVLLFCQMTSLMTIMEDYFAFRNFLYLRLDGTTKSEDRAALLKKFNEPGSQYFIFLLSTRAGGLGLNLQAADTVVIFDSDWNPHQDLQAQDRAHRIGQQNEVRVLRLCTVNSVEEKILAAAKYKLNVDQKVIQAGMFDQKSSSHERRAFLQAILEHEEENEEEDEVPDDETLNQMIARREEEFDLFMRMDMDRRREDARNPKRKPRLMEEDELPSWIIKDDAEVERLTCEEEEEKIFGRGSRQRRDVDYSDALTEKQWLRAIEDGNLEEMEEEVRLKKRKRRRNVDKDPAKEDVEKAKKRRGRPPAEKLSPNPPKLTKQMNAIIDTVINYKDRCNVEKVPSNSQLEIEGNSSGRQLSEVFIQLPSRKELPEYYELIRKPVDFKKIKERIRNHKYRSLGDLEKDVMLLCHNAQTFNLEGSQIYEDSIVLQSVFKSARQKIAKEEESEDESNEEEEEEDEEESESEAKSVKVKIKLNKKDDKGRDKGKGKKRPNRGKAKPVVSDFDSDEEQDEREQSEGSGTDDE
BRG-1, sequence (P51532 whole entry): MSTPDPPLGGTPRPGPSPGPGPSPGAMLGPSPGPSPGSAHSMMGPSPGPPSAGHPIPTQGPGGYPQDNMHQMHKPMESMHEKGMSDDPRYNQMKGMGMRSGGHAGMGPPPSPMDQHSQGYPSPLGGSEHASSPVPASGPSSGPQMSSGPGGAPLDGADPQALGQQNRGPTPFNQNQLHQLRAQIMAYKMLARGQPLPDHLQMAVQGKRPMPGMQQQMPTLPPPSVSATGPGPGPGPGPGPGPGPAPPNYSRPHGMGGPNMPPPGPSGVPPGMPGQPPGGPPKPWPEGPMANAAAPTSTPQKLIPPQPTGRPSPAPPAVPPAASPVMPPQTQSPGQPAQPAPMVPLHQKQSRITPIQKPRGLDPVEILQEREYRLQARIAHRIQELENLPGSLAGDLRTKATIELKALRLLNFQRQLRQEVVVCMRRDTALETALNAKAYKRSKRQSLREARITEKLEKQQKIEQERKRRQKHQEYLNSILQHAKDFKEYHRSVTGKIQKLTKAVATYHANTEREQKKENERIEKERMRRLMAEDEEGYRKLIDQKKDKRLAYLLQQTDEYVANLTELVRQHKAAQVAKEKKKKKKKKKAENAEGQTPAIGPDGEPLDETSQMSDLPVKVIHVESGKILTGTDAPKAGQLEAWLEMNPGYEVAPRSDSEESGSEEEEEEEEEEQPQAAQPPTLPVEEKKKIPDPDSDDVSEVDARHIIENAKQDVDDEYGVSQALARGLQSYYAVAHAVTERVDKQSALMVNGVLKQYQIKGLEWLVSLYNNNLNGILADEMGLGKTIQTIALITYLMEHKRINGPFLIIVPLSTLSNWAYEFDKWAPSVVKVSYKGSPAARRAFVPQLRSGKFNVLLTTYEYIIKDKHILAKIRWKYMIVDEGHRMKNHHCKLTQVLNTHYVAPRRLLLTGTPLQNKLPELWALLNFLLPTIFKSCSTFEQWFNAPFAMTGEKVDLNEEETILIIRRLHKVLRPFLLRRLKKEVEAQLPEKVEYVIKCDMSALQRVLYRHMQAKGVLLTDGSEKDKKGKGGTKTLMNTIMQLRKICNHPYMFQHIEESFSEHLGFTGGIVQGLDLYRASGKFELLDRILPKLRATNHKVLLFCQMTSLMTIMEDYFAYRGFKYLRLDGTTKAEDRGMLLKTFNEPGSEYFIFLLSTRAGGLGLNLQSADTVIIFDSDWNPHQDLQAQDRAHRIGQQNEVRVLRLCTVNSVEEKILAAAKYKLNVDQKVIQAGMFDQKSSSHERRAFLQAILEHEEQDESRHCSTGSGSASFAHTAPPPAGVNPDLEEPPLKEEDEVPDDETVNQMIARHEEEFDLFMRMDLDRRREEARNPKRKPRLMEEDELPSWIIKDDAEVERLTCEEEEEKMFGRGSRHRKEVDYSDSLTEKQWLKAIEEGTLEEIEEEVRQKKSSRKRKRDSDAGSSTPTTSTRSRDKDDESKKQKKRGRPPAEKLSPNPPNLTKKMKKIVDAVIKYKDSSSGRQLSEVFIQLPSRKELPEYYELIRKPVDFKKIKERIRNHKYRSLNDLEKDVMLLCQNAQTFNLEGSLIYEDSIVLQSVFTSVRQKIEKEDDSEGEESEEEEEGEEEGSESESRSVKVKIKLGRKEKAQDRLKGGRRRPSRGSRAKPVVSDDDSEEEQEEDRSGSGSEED

As a reminder, the IC50 is the midpoint of a concentration-inhibition curve. As for `C[C@@H]1CN(c2cccc(-c3csc(NC(=O)[C@H](C)NC(=O)c4ccnc(C(C)(C)C)c4)n3)c2)C[C@H](C)O1` [Compound 435, 2-(tert-butyl)-N-((S)-1-((4-(3-((cis)-2,6-dimethylmorpholino)phenyl)thiazol-2-yl)amino)-1-oxopropan-2-yl)isonicotinamide], at BRG-1, the IC50 lay within 1 to 5 µM and the Emax is over 95%. Further, at BRM, the “BRM Max % Inhibition” value is over 95% and the IC50 was 0.1 to 1 µM.
Take `COC[C@H](NC(=O)c1ccnc(C(C)(C)C)c1)C(=O)Nc1nc(-c2cccc(N3C[C@@H](C)O[C@@H](C)C3)c2)cs1` [Compound 436, 2-(tert-butyl)-N-((S)-1-((4-(3-((cis)-2,6-dimethylmorpholino)phenyl)thiazol-2-yl)amino)-3-methoxy-1-oxopropan-2-yl)isonicotinamide]: on BRG-1, the IC50 lay in the range of 1 to 5 µM and the Emax was over 90%. For the same compound, at BRM, the “BRM Max % Inhibition” value is recorded as over 90% and the IC50 lay within 0.1 to 1 µM.
The corresponding values for `C[C@@H]1CN(c2cccc(-c3csc(NC(=O)CNC(=O)c4ccc5c(c4)[C@@](C)(O)COC5)n3)c2)C[C@H](C)O1` [Compound 437, (R)-N-(2-((4-(3-((cis)-2,6-dimethylmorpholino)phenyl)thiazol-2-yl)amino)-2-oxoethyl)-4-hydroxy-4-methylisochromane-6-carboxamide] are 0.1 to 1 µM, over 95%, over 95% and under 0.1 µM.
The like results for `C[C@@H]1CN(c2cccc(-c3csc(NC(=O)CNC(=O)c4ccc5c(c4)[C@](C)(O)COC5)n3)c2)C[C@H](C)O1` [Compound 438, (S)-N-(2-((4-(3-((cis)-2,6-dimethylmorpholino)phenyl)thiazol-2-yl)amino)-2-oxoethyl)-4-hydroxy-4-methylisochromane-6-carboxamide] were, in that order, 1 to 5 µM, over 95%, over 95% and 0.1 to 1 µM.
The like results for `C[C@@H]1CN(c2cccc(-c3csc(NC(=O)CNC(=O)c4cncc(C(C)(C)C)c4)n3)c2)C[C@H](C)O1` [Compound 443, 5-(tert-butyl)-N-(2-((4-(3-((cis)-2,6-dimethylmorpholino)phenyl)thiazol-2-yl)amino)-2-oxoethyl)nicotinamide] were, in that order, 0.1 to 1 µM, over 95%, over 95% and under 0.1 µM.
Turning to `C[C@@H]1CN(c2cccc(-c3csc(NC(=O)CNC(=O)c4ccc5c(c4)C(C#N)(CO)CCO5)n3)c2)C[C@H](C)O1` (stereo partly drawn) [Compound 444, 4-cyano-N-(2-((4-(3-((cis)-2,6-dimethylmorpholino)phenyl)thiazol-2-yl)amino)-2-oxoethyl)-4-(hydroxymethyl)chromane-6-carboxamide], at BRG-1, the IC50 was in the range of 0.1 to 1 µM and the Emax is over 95%. On BRM, the “BRM Max % Inhibition” value is on record as over 95% and the IC50 is under 0.1 µM.
As to `CSCC[C@H](NC(=O)c1ccc(N)cc1)C(=O)Nc1nc(-c2cccc(-c3ccncc3)c2)cs1` [Compound A], in experiment [1] (0 to 10 micromolar, 3 days, FIGS. 2A and 2B), the “growth inhibition of uveal melanoma cells compared with the clinical PKC and MEK inhibitors” value was “comparable growth inhibition”. Besides, the “onset of inhibition compared with the clinical PKC and MEK inhibitors” value in experiment [1] is “faster onset of inhibition”.
